Experimental data: patent US20230172959A1, “USE OF NMN FOR THE PREVENTION AND/OR TREATMENT OF A BACK PAIN AND CORRESPONDING COMPOSITIONS” (NUVAMID SA, priority 2020, published 2023)
“And” between values parts separate entries of the source, which are not always exact repeats. Identical values can stand only once.

Tests used:
[1] = tested on: chronic lumbalgia; assay: Lequesne algo-functional index, 10-day satisfaction study in 12 volunteers; format: in vivo, human
Method: As for the Lequesne score, it varies from 0 to 22: the higher the score, the more extreme or even intolerable the impairment. From 8 to 10, the impairment is qualified as significant and for an index score greater than or equal to 10, the impairment is qualified as very significant. A satisfaction study was carried out on a group of 12 volunteers, aged 42±8 years, consisting of seven female and five male subjects. The main objective of this study was to evaluate the level of satisfaction of subjects with regard to the evolution of their lumbalgia (low back pain) during the morning and/or evening application of a composition according to the invention containing 5% by weight of NMN. A composition in the form of an oil-in-water emulsion comprising 5% NMN was formulated as follows, the ingredients being designated by their INCI (International Nomenclature of Cosmetic Ingredients) name: Aqua, Paraffinum liquidum, Cetyl alcohol, Glyceryl stearate, Benzyl PCA, Ceteareth-20, Ceteareth-12, Cetyl Palmitate, Cocoglycerides, Cetearyl alcohol, Sodium Hydroxide, NMN. The composition was prepared according to any method well known to the person skilled in the art. The study took place over 10 days. At baseline, ie upon inclusion (DO), the selected subjects provide their demographic characteristics (age, weight, height), indicate the period of persistence and intensity of the pain on a Visual Analogue Scale, and complete the WOMAC and Lequesne questionnaires. […] On day 10, the volunteers complete the WOMAC questionnaire, the Lequesne questionnaire, the Visual Analogue Scale (VAS) of pain, indicating the perceived improvement in lumbalgia pain relief as measured by the PGI-I index (abbreviation for “Patient Global Improvement Impression”), satisfaction with regard to evolution of the lumbalgia on a Likert scale as well as the ease of application and penetration of the composition, assessment of the texture and odour of the composition, likelihood of re-use thereof in the event of recurrence of a similar pain, and recommendation of use to third parties presenting with pain of similar nature. […]

[2] = tested on: chronic lumbalgia; assay: Visual Analogue Scale (VAS) of lumbalgia pain, 10-day satisfaction study in 12 volunteers; format: in vivo, human; conditions: for VAS lumbalgia pain, median / VAS lumbalgia pain, mean: 5% NMN oil-in-water emulsion topical twice a day, scale 0-100; for VAS lumbalgia pain, median: baseline D 0 72.5; for VAS lumbalgia pain, mean: baseline D 0 73.4
Method: A satisfaction study was carried out on a group of 12 volunteers, aged 42±8 years, consisting of seven female and five male subjects. The main objective of this study was to evaluate the level of satisfaction of subjects with regard to the evolution of their lumbalgia (low back pain) during the morning and/or evening application of a composition according to the invention containing 5% by weight of NMN. The duration of the existence of pains in the lumbar spine region was on average 4±3 years (ie […]) while the current pains of the subjects dated back to 2±3 years pre-baseline (before inclusion). These pains occurred mostly spontaneously (58.3%). More precisely, seven participants presented with a lumbalgia of spontaneous origin, one participant presented with a lumbalgia resulting from a physical or sporting activity, two participants attributed their lumbalgia to the practice of gardening, and two other participants attributed their lumbalgia to another of these causes. The participants therefore all had chronic lumbalgia. A composition in the form of an oil-in-water emulsion comprising 5% NMN was formulated as follows, the ingredients being designated by their INCI (International Nomenclature of Cosmetic Ingredients) name: Aqua, Paraffinum liquidum, Cetyl alcohol, Glyceryl stearate, Benzyl PCA, Ceteareth-20, Ceteareth-12, Cetyl Palmitate, Cocoglycerides, Cetearyl alcohol, Sodium Hydroxide, NMN. The composition was prepared according to any method well known to the person skilled in the art. The study took place over 10 days. At baseline, ie upon inclusion (DO), the selected subjects provide their demographic characteristics (age, weight, height), indicate the period of persistence and intensity of the pain on a Visual Analogue Scale, and complete the WOMAC and Lequesne questionnaires. These different scales were used in order to assess by different means the effect of NMN on lumbalgia. Over the subsequent 9 day period, each evening the subjects fill in the Visual Analogue Scale of pain, ensuring any discomfort or problems arising or the taking of analgesics are reported therein. On day 10, the volunteers complete the WOMAC questionnaire, the Lequesne questionnaire, the Visual Analogue Scale (VAS) of pain, indicating the perceived improvement in lumbalgia pain relief as measured by the PGI-I index (abbreviation for “Patient Global Improvement Impression”), satisfaction with regard to evolution of the lumbalgia on a Likert scale as well as the ease of application and penetration of the composition, assessment of the texture and odour of the composition, likelihood of re-use thereof in the event of recurrence of a similar pain, and recommendation of use to third parties presenting with pain of similar nature. The PGI-I index is an index that serves as means for evaluating the response to a treatment. The Likert scale is a psychometric tool used for measuring an attitude in individuals, which consists of one or more statements for which the individual responding expresses their degree of agreement or disagreement.

NC(=O)c1ccc[n+]([C@@H]2O[C@H](COP(=O)([O-])O)[C@@H](O)[C@H]2O)c1 (stereo in doubt) [NMN, nicotinamide mononucleotide]
reduction in the Lequesne score ([1]; baseline to study endpoint): 38.8% | subjects with no impairment or only a modest or slight impairment (Lequesne) ([1]; end of the study): 83.4% | Lequesne algo-functional score ([1]; study endpoint (day 10), baseline 8.3±2.5, p<0.001, 5% NMN emulsion topical): 5.3±3.8 | reduction of lumbalgia pain measured by the VAS ([2]; 10 days of application vs baseline, 5% NMN emulsion topical, p<0.0001): 58.7±29.2% and 58.7% | VAS lumbalgia pain, median ([2]; D 1): 60.5 | VAS lumbalgia pain, mean ([2]; D 1): 61.1 | VAS lumbalgia pain, median ([2]; D 2): 59.0 | VAS lumbalgia pain, mean ([2]; D 2): 56.8 | VAS lumbalgia pain, median ([2]; D 3): 57.5 | VAS lumbalgia pain, mean ([2]; D 3): 52.3 | VAS lumbalgia pain, median ([2]; D 4): 51.0 | VAS lumbalgia pain, mean ([2]; D 4): 49.4 | VAS lumbalgia pain, median ([2]; D 5): 45.5 | VAS lumbalgia pain, mean ([2]; D 5): 45.7 | VAS lumbalgia pain, median ([2]; D 6): 42.5 | VAS lumbalgia pain, mean ([2]; D 6): 42.4 | VAS lumbalgia pain, median ([2]; D 7): 48.0 | VAS lumbalgia pain, mean ([2]; D 7): 45.2 | VAS lumbalgia pain, median ([2]; D 8): 38.0 | VAS lumbalgia pain, mean ([2]; D 8): 35.8 | VAS lumbalgia pain, median ([2]; D 9): 26.0 | VAS lumbalgia pain, mean ([2]; D 9): 28.3 | VAS lumbalgia pain, median ([2]; D 10): 30.0 | VAS lumbalgia pain, mean ([2]; D 10): 30.8±22.6 and 30.8 | mean time period to obtain an initial 50% reduction in pain relative to baseline ([2]; VAS, 5% NMN emulsion topical twice a day): 5.0 ± 2.9 days
